Experimental data published in ChEMBL document CHEMBL5665443, “Enzyme Inhibitor Single Concentration assay results for EUbOPEN Chemogenomics Library” (2024).

How the values were obtained:
Conditions in all cases: Hit No
[1] = target: Uracil-DNA glycosylase (Homo sapiens) (UniProt P13051);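 note: UNG excision on a quenched double-stranded DNA oligo probe, with APE1 added for strand incision and turnover, read as fluorescence at 594 nm as strands separate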
Description: Inhibition of UNG by quantifying inhibition of UNG-mediated cleavage and dissociation of quenched duplex DNA oligonucleotides, measured as fluorescence at 594 nm. To generate a functional strand incision and increase turn-over this assay is coupled to APE1.

[2] = target: T1, Endonuclease 8-like 2 (Homo sapiens) (UniProt Q969S2);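 note: fluorescence at 594 nm reports NEIL2 cutting and release of a quenched double-stranded DNA oligo substrate, reduced signal read as inhibition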
T1 sequence (whole entry): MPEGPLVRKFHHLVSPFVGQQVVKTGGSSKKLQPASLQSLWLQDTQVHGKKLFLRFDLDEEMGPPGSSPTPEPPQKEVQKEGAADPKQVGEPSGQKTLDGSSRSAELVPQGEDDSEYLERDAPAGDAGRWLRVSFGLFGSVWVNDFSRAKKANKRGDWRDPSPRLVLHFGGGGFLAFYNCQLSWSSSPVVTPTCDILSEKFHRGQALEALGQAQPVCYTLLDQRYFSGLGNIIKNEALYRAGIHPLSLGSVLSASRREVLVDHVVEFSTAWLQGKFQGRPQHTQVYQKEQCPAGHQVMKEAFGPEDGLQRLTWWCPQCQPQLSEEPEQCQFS
Description: Inhibition of NEIL2 by quantifying inhibition of NEIL2-mediated cleavage and dissociation of quenched duplex DNA oligonucleotides, measured as fluorescence at 594 nm.

[3] = target: G/T mismatch-specific thymine DNA glycosylase (Homo sapiens) (UniProt Q13569);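 note: human TDG cleavage of quenched duplex DNA oligonucleotides coupled to APE1, strand release read as fluorescence at 594 nm, inhibition of TDG activity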
Sequence of G/T mismatch-specific thymine DNA glycosylase (Homo sapiens) (Q13569 whole entry): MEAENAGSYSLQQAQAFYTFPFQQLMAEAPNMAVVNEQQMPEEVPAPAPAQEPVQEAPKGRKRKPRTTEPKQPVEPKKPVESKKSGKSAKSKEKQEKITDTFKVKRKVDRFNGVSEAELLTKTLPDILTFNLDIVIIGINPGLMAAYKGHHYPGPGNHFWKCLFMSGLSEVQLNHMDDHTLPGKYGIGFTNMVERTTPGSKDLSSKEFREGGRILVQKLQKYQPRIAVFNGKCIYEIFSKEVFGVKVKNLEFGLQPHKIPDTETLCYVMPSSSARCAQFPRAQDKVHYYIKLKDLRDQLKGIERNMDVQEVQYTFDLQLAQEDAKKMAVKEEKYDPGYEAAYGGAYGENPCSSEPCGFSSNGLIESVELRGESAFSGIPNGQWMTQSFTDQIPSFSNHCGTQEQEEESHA
Description: Inhibition of TDG by quantifying inhibition of TDG-mediated cleavage and dissociation of quenched duplex DNA oligonucleotides, measured as fluorescence at 594 nm. To generate a functional strand incision and increase turn-over this assay is coupled to APE1.

[4] = target: T2, Endonuclease III-like protein 1 (Homo sapiens) (UniProt P78549);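 note: enzyme assay tracking NTHL1 cutting and release of a quenched double-stranded DNA oligo substrate, read as fluorescence at 594 nm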
T2 sequence (whole entry): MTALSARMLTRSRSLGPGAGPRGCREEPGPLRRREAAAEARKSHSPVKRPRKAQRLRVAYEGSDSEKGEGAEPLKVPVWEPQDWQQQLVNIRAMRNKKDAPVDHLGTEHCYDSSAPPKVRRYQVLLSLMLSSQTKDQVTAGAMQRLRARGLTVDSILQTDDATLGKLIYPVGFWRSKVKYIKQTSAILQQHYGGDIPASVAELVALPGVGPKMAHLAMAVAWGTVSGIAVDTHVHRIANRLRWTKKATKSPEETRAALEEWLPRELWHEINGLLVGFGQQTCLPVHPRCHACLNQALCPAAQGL
Description: Inhibition of NTHL1 by quantifying inhibition of NTHL1-mediated cleavage and dissociation of quenched duplex DNA oligonucleotides, measured as fluorescence at 594 nm.

[5] = target: T3, Adenine DNA glycosylase (Homo sapiens) (UniProt Q9UIF7);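 note: human MUTYH activity read as 594 nm fluorescence from cleavage and release of a quenched DNA duplex, coupled with APE1 for strand incision, lower signal meaning inhibition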
T3 sequence (whole entry): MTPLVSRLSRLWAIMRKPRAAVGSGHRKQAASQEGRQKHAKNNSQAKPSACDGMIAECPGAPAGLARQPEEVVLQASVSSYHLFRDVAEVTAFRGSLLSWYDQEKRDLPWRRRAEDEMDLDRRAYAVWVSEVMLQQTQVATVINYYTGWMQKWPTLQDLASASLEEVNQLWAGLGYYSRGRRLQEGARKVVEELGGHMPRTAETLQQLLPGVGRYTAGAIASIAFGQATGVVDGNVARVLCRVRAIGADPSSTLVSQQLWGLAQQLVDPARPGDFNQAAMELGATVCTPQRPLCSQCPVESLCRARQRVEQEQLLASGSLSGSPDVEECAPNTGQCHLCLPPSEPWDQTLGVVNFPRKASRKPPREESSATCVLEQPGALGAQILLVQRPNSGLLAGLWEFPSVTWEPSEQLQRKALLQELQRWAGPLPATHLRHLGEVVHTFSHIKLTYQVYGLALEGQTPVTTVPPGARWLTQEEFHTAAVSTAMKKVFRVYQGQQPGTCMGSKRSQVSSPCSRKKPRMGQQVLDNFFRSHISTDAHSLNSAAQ
Description: Inhibition of MUTYH by quantifying inhibition of MUTYH-mediated cleavage and dissociation of quenched duplex DNA oligonucleotides, measured as fluorescence at 594 nm. To generate a functional strand incision and increase turn-over this assay is coupled to APE1.

[6] = target: N-glycosylase/DNA lyase (Homo sapiens) (UniProt O15527);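 note: OGG1 cleavage of a quenched duplex DNA oligonucleotide, coupled to APE1 for strand incision, read as fluorescence at 594 nm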
Sequence of N-glycosylase/DNA lyase (Homo sapiens) (O15527 whole entry): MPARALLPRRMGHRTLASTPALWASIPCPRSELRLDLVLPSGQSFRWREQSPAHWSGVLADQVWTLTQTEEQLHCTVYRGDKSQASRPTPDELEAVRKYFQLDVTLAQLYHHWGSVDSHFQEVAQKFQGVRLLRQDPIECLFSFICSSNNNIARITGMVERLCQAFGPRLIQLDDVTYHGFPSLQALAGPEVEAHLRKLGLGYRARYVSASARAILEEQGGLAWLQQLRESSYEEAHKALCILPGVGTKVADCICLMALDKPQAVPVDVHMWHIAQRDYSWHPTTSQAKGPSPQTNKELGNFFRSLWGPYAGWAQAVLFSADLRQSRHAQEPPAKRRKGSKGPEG
Description: Inhibition of OGG1 by quantifying inhibition of OGG1-mediated cleavage and dissociation of quenched duplex DNA oligonucleotides, measured as fluorescence at 594 nm. To generate a functional strand incision and increase turn-over this assay is coupled to APE1.

[7] = target: T4, Single-strand selective monofunctional uracil DNA glycosylase (Homo sapiens) (UniProt Q53HV7);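 note: enzymatic SMUG1 assay coupled with APE1, reading fluorescence at 594 nm released when a quenched double-stranded DNA oligonucleotide substrate is cleaved and separated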
T4 sequence (whole entry): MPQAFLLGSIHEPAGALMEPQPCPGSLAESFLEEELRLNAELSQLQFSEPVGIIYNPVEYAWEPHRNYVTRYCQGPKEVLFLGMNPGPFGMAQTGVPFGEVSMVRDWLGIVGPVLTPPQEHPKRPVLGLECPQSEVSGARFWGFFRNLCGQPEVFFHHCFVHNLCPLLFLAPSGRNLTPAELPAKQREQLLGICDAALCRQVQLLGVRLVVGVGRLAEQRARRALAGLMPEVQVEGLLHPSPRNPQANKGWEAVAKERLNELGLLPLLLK
Description: Inhibition of SMUG1 by quantifying inhibition of SMUG1-mediated cleavage and dissociation of quenched duplex DNA oligonucleotides, measured as fluorescence at 594 nm. To generate a functional strand incision and increase turn-over this assay is coupled to APE1.

[8] = target: Methyl-CpG-binding domain protein 4 (Homo sapiens) (UniProt O95243);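 note: MBD4 activity read as fluorescence at 594 nm from cleavage and release of a quenched duplex DNA oligonucleotide, with APE1 coupled to incise the strand and raise turnover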
Sequence of Methyl-CpG-binding domain protein 4 (Homo sapiens) (O95243 whole entry, the tested form may be a part): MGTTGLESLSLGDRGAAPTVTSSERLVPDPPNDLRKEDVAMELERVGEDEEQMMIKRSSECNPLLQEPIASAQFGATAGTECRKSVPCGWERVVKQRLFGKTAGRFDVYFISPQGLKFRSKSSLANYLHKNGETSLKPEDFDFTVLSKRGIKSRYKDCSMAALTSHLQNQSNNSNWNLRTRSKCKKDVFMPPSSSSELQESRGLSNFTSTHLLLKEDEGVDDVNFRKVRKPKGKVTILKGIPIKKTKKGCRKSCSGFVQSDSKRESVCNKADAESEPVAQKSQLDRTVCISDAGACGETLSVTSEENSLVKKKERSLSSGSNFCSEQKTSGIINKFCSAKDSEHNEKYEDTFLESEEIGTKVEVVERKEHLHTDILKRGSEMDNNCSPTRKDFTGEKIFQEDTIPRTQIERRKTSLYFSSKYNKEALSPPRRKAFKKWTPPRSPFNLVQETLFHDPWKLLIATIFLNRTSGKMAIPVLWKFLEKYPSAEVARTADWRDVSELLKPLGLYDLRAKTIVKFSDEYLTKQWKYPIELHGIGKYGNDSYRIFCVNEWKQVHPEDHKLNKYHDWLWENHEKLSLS
Description: Inhibition of MBD4 by quantifying inhibition of MBD4-mediated cleavage and dissociation of quenched duplex DNA oligonucleotides, measured as fluorescence at 594 nm. To generate a functional strand incision and increase turn-over this assay is coupled to APE1.

Sequence of Uracil-DNA glycosylase (Homo sapiens) (P13051 whole entry): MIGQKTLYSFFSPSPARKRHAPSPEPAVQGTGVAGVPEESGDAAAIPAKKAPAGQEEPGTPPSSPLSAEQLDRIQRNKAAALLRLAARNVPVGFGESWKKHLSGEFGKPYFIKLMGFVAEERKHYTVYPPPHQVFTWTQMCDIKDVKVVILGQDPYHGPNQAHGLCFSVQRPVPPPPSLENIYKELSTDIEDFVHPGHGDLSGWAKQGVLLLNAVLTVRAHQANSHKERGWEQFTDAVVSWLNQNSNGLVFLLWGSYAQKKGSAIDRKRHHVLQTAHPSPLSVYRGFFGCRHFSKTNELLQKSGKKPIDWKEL

Row | Structure (SMILES) | inhibition ([1]; Compound Concentration 10.0 uM) | inhibition ([2]; Compound Concentration 10.0 uM) | inhibition ([3]; Compound Concentration 10.0 uM) | inhibition ([4]; Compound Concentration 10.0 uM) | inhibition ([5]; Compound Concentration 10.0 uM) | inhibition ([6]; Compound Concentration 10.0 uM) | inhibition ([7]; Compound Concentration 10.0 uM) | inhibition ([8]; Compound Concentration 10.0 uM) | inhibition ([1]; Compound Concentration 1.0 uM) | inhibition ([3]; Compound Concentration 1.0 uM) | inhibition ([4]; Compound Concentration 1.0 uM) | inhibition ([5]; Compound Concentration 1.0 uM) | inhibition ([7]; Compound Concentration 1.0 uM) | inhibition ([8]; Compound Concentration 1.0 uM) | inhibition ([2]; Compound Concentration 1.0 uM) | inhibition ([6]; Compound Concentration 1.0 uM)
1 | COc1nc2ccc([C@@](O)(c3ccccc3)C3CCN(C(C)=O)CC3)cc2c(Cl)c1Cc1ccc(-n2cccn2)cc1 | 10.2% | -7.63% | 48.5% | -1.29% | 5.36% | 10.5% | 22.3% | 64.6% | – | – | – | – | – | – | – | –
2 | CC(=O)N1CCC(c2ccc(C(=O)NC3=NCCN3)cc2C(F)(F)F)CC1 | -0.0445% | 6.91% | 48.7% | 13.2% | 6.4% | -3.66% | 11.2% | 57% | – | – | – | – | – | – | – | –
3 | Cn1cncc1[C@](O)(COc1ccc(C#N)cc1-c1ccc(OC(F)(F)F)cc1)c1ccc(C#N)cc1 | -1.26% | 0.531% | 37.9% | 10.6% | -9.34% | 7.95% | -2.99% | 62% | – | – | – | – | – | – | – | –
4 | CC(=O)N1CCC(c2ccc(C(=O)NC(=N)N)cc2C(F)(F)F)CC1 | 3.89% | -0.744% | 47.6% | 5.94% | 0.114% | 3.38% | 16.4% | 58.8% | – | – | – | – | – | – | – | –
5 | CN1CCN(C(=O)C(C)(C)c2ccc(C(=O)Nc3cn4cc(-c5cc(C(C)(C)C)cc(C(C)(C)C)c5)ccc4n3)cc2)CC1 | 2.56% | -7.12% | 15.4% | -6.55% | – | 18.8% | 11.1% | -6.81% | 3.16% | 41% | -0.61% | -8.55% | 20% | -6.71% | – | –
6 | CO[C@@H](C)c1c(Nc2ccc([C@H](N(C)C(=O)C3CCS(=O)(=O)CC3)C(F)(F)F)cc2)cnc2cc(Cl)nn12 | -1.74% | 5.63% | 48.6% | -3.92% | -6.71% | -4% | -7.05% | 77.6% | – | – | – | – | – | – | – | –
7 | Cn1cc(C(=O)O)c2ccc(N3CCC(OCc4c(-c5c(Cl)cccc5Cl)noc4C4CC4)CC3)cc21 | -3.65% | 0.531% | 99.9% | 8.57% | 2.96% | 24% | -2.05% | 64.1% | – | – | – | – | – | – | – | –
8 | CCC(=O)N[C@@H]1CC[C@H](C(=O)N(C)c2ccc(-c3nc4ccccc4o3)cc2)C1 | 1.95% | 4.61% | 37.2% | 3.97% | -7.15% | -5.03% | 5.39% | 54.4% | – | – | – | – | – | – | – | –
9 | CC1=C(C#N)C(c2ccc3[nH]nc(C)c3c2)C(C#N)=C(C)N1 | 2.96% | 1.25% | 72.9% | 7.43% | 18.6% | 4.91% | 17.6% | 24.9% | – | – | – | – | – | – | – | –
10 | O=C1CCc2cc(Nc3cc(OC4CCOCC4)c([N+](=O)[O-])cc3Cl)ccc2N1 | 4.09% | 4.87% | 79.3% | 5.94% | 12.7% | 46.7% | 24.3% | 65.2% | – | – | – | – | – | – | – | –
11 | O=C(O)[C@H]1[C@H](Cn2nnc3ccccc3c2=O)CC[C@@H]1C(=O)c1ccc(OCCC2CCOCC2)cc1 | – | – | – | – | – | – | – | – | -2.04% | 51.4% | 2% | 7.33% | 17% | 58.9% | -9.93% | 2.93%
12 | Cc1cc(OC2CCS(=O)(=O)CC2)cc(C)c1-c1cccc(COc2ccc(CCC(=O)O)c(F)c2)c1 | 3.54% | -9.42% | 45.8% | -0.63% | 3.94% | 48.4% | 12.1% | 58.2% | – | – | – | – | – | – | – | –
13 | O=C(O)CCCc1cc2cc(Cl)ccc2n1S(=O)(=O)c1ccc2ncsc2c1 | -3.11% | 2.32% | 99% | 1.34% | -4.2% | 5.59% | 23.9% | 58.8% | – | – | – | – | – | – | – | –
14 | O=C(O)Cc1cc(I)c(Oc2ccc(O)c(I)c2)c(I)c1 | 3.85% | -3.55% | 40.4% | 15.2% | -6.77% | 32.3% | 30.4% | 63.6% | – | – | – | – | – | – | – | –
15 | O=C(c1ccc2c(ccn2-c2ccc(F)cc2)c1)N1CC(N2CCN(C(=O)c3nccs3)CC2)C1 | 7.11% | -1.76% | 45.8% | -0.63% | -6.82% | 5% | 21.1% | 63.5% | – | – | – | – | – | – | – | –
16 | O=C(N1CCS(=O)(=O)CC1)N1C[C@H](c2ccc(OC(F)(F)F)cc2)C[C@H](c2nc(C3CC3)no2)C1 | -2.41% | -9.67% | 56.4% | -9.83% | 1.64% | 1.66% | 9.87% | 55.6% | – | – | – | – | – | – | – | –
17 | COc1ccc(COc2ccc(Cc3cnc(N)nc3N)cc2OC)cc1 | -0.384% | -2.46% | 46.5% | -8.98% | -3.46% | 6.26% | 6.38% | 24.9% | – | – | – | – | – | – | – | –
